# Data published in patent publication US10328092B2, “Methods and compositions for treatment of drug addiction” (The Royal Institution for the Advancement of Learning / …, priority 2015, dated 2019).
# System: adult microglial cells
# Assay: TNFα mRNA in cultured adult mouse microglia
# Format: cell-based
# Settings: cocaine 1 μm, 3 hours
# Method: (SEQ ID NO: 1) [200 nM]; mouse TNFα reverse, […] (SEQ ID NO: 2) [200 nM]; mouse GAPDH forward, […] (SEQ ID NO: 3) [300 nM]; mouse GAPDH reverse, […] (SEQ ID NO: 4) [300 nM]; rat TNFα forward, […] (SEQ ID NO: 1) [600 nM]; rat TNFα reverse, […] (SEQ ID NO: 5) [600 nM]; rat cyclophilin forward, […] (SEQ ID NO: 6) [500 nM]; rat cyclophilin reverse, […] (SEQ ID NO: 7) [500 nM]. After 40 cycles, the Ct values were determined.
# Adult male C57BL/6 mice (8-12 weeks) underwent cardiac perfusion with Hank's Balanced Salt Solution (HBSS) and whole brains were removed. Cortices and striata were dissected, cut in to small pieces and subjected to enzymatic digestion with the Neural Tissue Dissociation Kit (P) (Miltenyi Biotech, US cat no. 130-092-628), as per manufactures instructions. Tissue was homogenised and resuspended in 35% isotonic Percoll, overlayed with HBSS and spun at 400 g for 45 mins for the removal of myelin. Pure populations of microglial cells were obtained through magnetic bead cell sorting using CD11b microbeads (Miltenyi, cat no. 130-093-634). Aliquots from positive and negative bead selected fractions were removed for cell staining to assess cell purity. […] Cells were acquired using a BD FACS Canto II and analyzed using BD FACSDiva software. […]
compound,measurement,value
COC(=O)[C@H]1[C@@H](OC(=O)c2ccccc2)C[C@@H]2CC[C@H]1N2C [cocaine],"TNFα mRNA, cultured adult microglia",95 % of control
